This passage reports melting point results from US20050147662A1, “Compounds and compositions for delivering active agents” (Emisphere Technologies, Inc., priority 2003, published 2005).

In turn, `CN(CCCCCCCC(=O)O)C(=O)c1ccccc1O` [Compound 1, 8-[(2-Hydroxy-benzoyl)-methyl-amino]-octanoic acid] showed a melting point of 85 to 88 °C.

The term melting point denotes the temperature of the solid-liquid transition.
